Values quoted from earlier work as cited in US20050272031A1, “Viral variants and uses therefor” (MELBOURNE HEALTH, priority 2000, published 2005).

Test system: HBV

## Nc1ncnc2c1ncn2CCOCP(=O)(O)O [Adefovir]
  anti-HBV activity in vitro: effective anti-HBV activity in vitro
